# Data from patent US8623196B2 (priority 2007, dated 2014).
# “And” between values parts separate entries of the source, which are not always exact repeats. Identical values can stand only once.
# Key:
# tyrosinase [1] = type: biochemical; conditions: NEST biosensor, 0.1 M phosphate buffer pH 7.0, −0.1 V
# tyrosinase [2] = target: tyrosinase (Agaricus bisporus, UniProt C7FF04); conditions: read-out: apparent Michaelis constant Km^app; cited from earlier work
# acetylcholinesterase = assay: Bi-enzyme electrode of tyrosinase and acetylcholinesterase: current response to substrate; type: biochemical; conditions: for Average sensitivity: tyrosinase/acetylcholinesterase electrode
# tyrosinase [3] = type: biochemical; conditions: for Average sensitivity (control experiments): PLL-Tyr bilayers without an esterase layer
# NEST = target: T1, NEST (Homo sapiens, UniProt Q8IY17); assay: NEST biosensor: amperometric response to phenyl valerate; type: biochemical; conditions: for Average sensitivity: tyrosinase/NEST electrode
# T1 construct: recombinant esterase domain of NTE (NEST) of the present invention comprising amino acid residues 727-1216 of NTE; histidine tag; made in house; host or cells: E. coli BL21(DE3), pET-21b vector
# T1 sequence (Q8IY17 775-1264): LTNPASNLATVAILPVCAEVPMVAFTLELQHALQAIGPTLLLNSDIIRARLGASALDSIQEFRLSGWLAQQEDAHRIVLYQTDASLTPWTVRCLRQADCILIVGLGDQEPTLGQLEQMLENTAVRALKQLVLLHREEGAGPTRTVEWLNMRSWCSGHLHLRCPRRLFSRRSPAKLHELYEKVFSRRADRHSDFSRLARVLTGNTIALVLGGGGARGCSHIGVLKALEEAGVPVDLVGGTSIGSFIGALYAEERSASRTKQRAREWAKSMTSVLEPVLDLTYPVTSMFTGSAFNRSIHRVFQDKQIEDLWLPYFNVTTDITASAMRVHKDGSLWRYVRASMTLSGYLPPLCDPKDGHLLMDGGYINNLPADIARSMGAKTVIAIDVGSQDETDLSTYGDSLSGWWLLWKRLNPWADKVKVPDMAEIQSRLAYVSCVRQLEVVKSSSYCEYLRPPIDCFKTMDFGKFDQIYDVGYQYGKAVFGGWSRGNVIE
# butyrylcholinesterase = assay: Bi-enzyme electrode of tyrosinase and butyrylcholinesterase: current response to substrate; type: biochemical
# Alkaline phosphatase = assay: Bi-enzyme electrode of tyrosinase and alkaline phosphatase: current response to substrate; type: biochemical; conditions: Table 1-2 lower part
# [4] = target: NEST (recombinant esterase domain of NTE) (Homo sapiens, UniProt Q8IY17); type: biochemical
# Sequence of tyrosinase (Agaricus bisporus, UniProt C7FF04) (C7FF04 1-392): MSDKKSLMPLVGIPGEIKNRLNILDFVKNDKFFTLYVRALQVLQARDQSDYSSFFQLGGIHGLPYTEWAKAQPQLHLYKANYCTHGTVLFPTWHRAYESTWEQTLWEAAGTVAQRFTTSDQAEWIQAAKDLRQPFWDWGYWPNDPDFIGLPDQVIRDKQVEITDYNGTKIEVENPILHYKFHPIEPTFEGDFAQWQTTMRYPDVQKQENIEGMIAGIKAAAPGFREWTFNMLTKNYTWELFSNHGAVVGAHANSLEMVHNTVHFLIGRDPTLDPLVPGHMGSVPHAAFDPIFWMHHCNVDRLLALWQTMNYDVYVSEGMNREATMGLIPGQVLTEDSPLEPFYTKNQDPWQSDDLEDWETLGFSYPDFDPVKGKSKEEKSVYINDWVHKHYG
smiles,measurement,setting,value
Oc1ccccc1O [catechol],sensitivity,tyrosinase [1],2.5±0.1 μAμM^−1 cm^−2
same,Km,tyrosinase [2],~220 µM
Oc1ccccc1 [phenol],Average sensitivity,tyrosinase [1],~410±30 nAμM^−1 cm^−2
same,Km,tyrosinase [2],~250 µM
"CC(=O)Oc1ccccc1 [Phenyl acetate, phenyl acetate]",Average sensitivity,acetylcholinesterase; Table 1-2 lower part,180 ± 8 nAμM^−1cm^−2
same,Average sensitivity,acetylcholinesterase; Table 1-2 upper part,180 ± 25 nAμM^−1cm^−2
same,Average sensitivity (control experiments),tyrosinase [3],0.4 nAμM^−1cm^−2
"CCCCC(=O)Oc1ccccc1 [Phenyl valerate, phenyl valerate]",concentration at which response reached saturation,"NEST; 0.1 M phosphate buffer, pH 7.0, −0.1 V vs Ag/AgCl",approximately 30 μM
same,Average sensitivity,NEST; Table 1-2 lower part,88 ± 6 nAμM^−1cm^−2
same,Average sensitivity,NEST; Table 1-2 upper part,87 ± 8 nAμM^−1cm^−2
same,mean current,"NEST; phenyl valerate 4 μM, n=10 electrodes",approximately 348 nA cm^−2
same,limit of detection,NEST; signal-to-noise ratio of three,0.5 µM
same,rise in current with substrate,acetylcholinesterase; used as substrate instead of phenyl acetate,no significant rise in current
same,Average sensitivity,butyrylcholinesterase; Table 1-2 lower part,70 ± 5 nAμM^−1cm^−2
same,Average sensitivity,butyrylcholinesterase; Table 1-2 upper part,25 ± 10 nAμM^−1cm^−2
same,Average sensitivity (control experiments),tyrosinase [3],0.5 nAμM^−1cm^−2 and 0.3 nAμM^−1cm^−2
same,rise in steady state current on addition of substrate,tyrosinase [3]; electrode with poly-L-lysine and tyrosinase bilayers without NEST,relatively very small rise in steady state current
O=P(O)(O)Oc1ccccc1 [Phenyl phosphate],Average sensitivity,Alkaline phosphatase,236 ± 10 nAμM^−1cm^−2
same,Average sensitivity (control experiments),tyrosinase [3],0.3 nAμM^−1cm^−2
"O=S(=O)(F)Cc1ccccc1 [PMSF, phenylmethylsulfonyl fluoride]",drop in current after addition of NEST inhibitor (dose dependence),[4],dose-dependent response
